Laboratory results published in ChEMBL document CHEMBL3507680, “University of Dundee, Gates Library screen for HepG2 cell viability”.

Assay: Human HepG2 cell viability assay in 384 well format
Type: toxicity, cell-based
Set-up: dose 125 nL, time 70.5 hour; concentration not given beside the values
Details: HepG2 cells, read-out: Inhibition

Row | SMILES | cytotoxicity at 70.5 h [%]
1 | COc1cccc(CCC(=O)N2CCCC(c3nncn3C)C2)c1 (centres undefined) | -7.27
2 | CC(Cn1cccn1)NC(=O)N1CCN(Cc2ccsc2)CC1 (centres undefined) | -1.89
3 | O=C(Cc1c[nH]c2ccccc12)N1CCC(Nc2ccccc2)CC1 | -3.37
4 | CCCc1nc(C)c(C(=O)NCCNc2ncccc2C#N)s1 | 0.537
5 | Cc1nc(C(C)(C)C)sc1C(=O)NCCNc1ncccc1C#N | -7.48
6 | Cc1ncc(C(=O)NCCNc2ncccc2C#N)s1 | -0.109
7 | Cc1nc(C)c(C(=O)NCCNc2ncccc2C(F)(F)F)s1 | -7.63
8 | COc1ccc(F)cc1C(=O)N1CCCC(CNS(C)(=O)=O)C1 (centres undefined) | 1.51
9 | CC(C)Oc1ncccc1CNC(=O)c1ccccn1 | -2.17
10 | Cc1occc1CNC(=O)NCCN(C)C1CCCC1 | -0.13
11 | Cc1noc(CN2CCCC2c2noc(C3CC3)n2)n1 (centres undefined) | 20.7
12 | CCCc1nc(CN2CCc3c(ncn3C3CC3)C2)cs1 | -5.23
13 | CCc1n[nH]c(C2CN(C(=O)c3cnc(C)nc3CC)CCO2)n1 (centres undefined) | -8.34
14 | Cc1nc(C2CCCN2C(=O)Cn2cncn2)no1 (centres undefined) | -9.87
15 | CC(NC(=O)COCC(F)(F)F)c1nnc2n1CCCCC2 (centres undefined) | -16.3
16 | O=C(NCCn1ccnc1)N1CCN(Cc2ccco2)CC1 | -3.81
17 | c1ccc(-n2cc(CN3CCCC3Cn3cccn3)nn2)cc1 (centres undefined) | -10.7
18 | CCc1nc(CN2CCc3c(ncn3C3CC3)C2)cs1 | -17
19 | CCOc1ccc(C(=O)N2CCCC(n3ccnc3C)C2)cc1OC (centres undefined) | -7.46
20 | CCc1n[nH]c(C2CN(C(=O)c3ncoc3CC)CCO2)n1 (centres undefined) | -13.4
21 | CCOc1ccc(NC(=O)NCc2cccnc2OCC)cc1 | -9.72
22 | Cn1ccc(C(=O)NCc2ccc(CN3CCCCC3)cc2)cc1=O | -12
23 | COc1ncccc1CNC(=O)Nc1ccc(N(C)C)nc1 | -12.5
24 | Cc1noc(C(C)C)c1C(=O)NCCCN1CCCCCC1=O | -7.03

Row | SMILES | cytotoxicity at 70.5 h [%]
25 | CN1CCCN(C(=O)NCCOc2ccc3c(c2)OCO3)CC1 | -2.86
26 | NC(=O)C1CCN(C(=O)NCCOc2ccc3c(c2)OCO3)C1 (centres undefined) | -8.31
27 | CC(=O)N1CCN(CC(C)(O)c2cccc(C(F)(F)F)c2)CC1 (centres undefined) | -8.81
28 | Cc1ccc(OCc2nc(CNCC3CN(C)CCO3)cs2)cc1 (centres undefined) | 29.7
29 | Cc1nc(CN(C)C2CCN(CCc3cccs3)C2)no1 (centres undefined) | 23.7
30 | Cc1cccc(OCCCN2CCC(N(C)Cc3noc(C)n3)C2)c1 (centres undefined) | 25.5
31 | Cc1nc(CN(C)C2CCN(CCCOc3ccc(F)cc3)C2)no1 (centres undefined) | 22.2
32 | Cc1nc(CN(C)C2CCN(CCCOc3ccccc3C)C2)no1 (centres undefined) | 0.379
33 | CCc1nc(CN(C)C2CCN(CCc3cccs3)C2)no1 (centres undefined) | -6.05
34 | O=C(NCC(=O)N1CCC2(CC1)OCCO2)c1ccoc1 | -7.96
35 | CN1CCC/C1=N\S(=O)(=O)c1ccc(NC(=O)c2ccc(Cl)cc2)cc1 | 1.42
36 | CN1CCC/C1=N\S(=O)(=O)c1ccc(NC(=O)Cc2cccs2)cc1 | -2.68
37 | CC(C)c1cc(NC(=O)CN2CCC(C(N)=O)CC2)on1 | -6.12
38 | CC(C1CC1)N(C)C(=O)c1ccc(-n2ncc(C#N)c2N)cc1 (centres undefined) | -6.01
39 | Cc1cccc(OCC(O)CN2CCC(Cn3cccn3)CC2)c1 (centres undefined) | 22.2
40 | N#Cc1cnn(-c2ccc(C(=O)N(C3CCCCC3)C3CC3)cc2)c1N | -0.0932
41 | COCCN(C)C(C)c1cccc(S(N)(=O)=O)c1 (centres undefined) | 0.815
42 | Cc1ccc(OCCN(C)C(C)c2cccc(S(N)(=O)=O)c2)cc1 (centres undefined) | 1.1
43 | O=C(NCC(=O)N1CCCC(c2ccccc2)CC1)c1ccoc1 (centres undefined) | 1.06
44 | CCN(Cc1cccc2c1OCO2)C(=O)NCc1ccccn1 | 13.5
45 | COc1ccc(Cl)cc1CC(=O)N1CCN(CC(C)O)CC1 (centres undefined) | -5.64
46 | CCc1nc(CN(C)C2CCN(CCOc3ccccc3)C2)no1 (centres undefined) | 0.0512
47 | CNC(=O)C1CCN(CC(=O)Nc2cc(C(C)C)no2)CC1 | -1.42
48 | COc1c(CNC2CCc3cc(Cl)ccc32)c(C)nn1C (centres undefined) | -3.82

Row | SMILES | cytotoxicity at 70.5 h [%]
49 | COc1c(CNC2CCc3cc(C)ccc32)c(C)nn1C (centres undefined) | -1.11
50 | CC(C)(C)c1cc(NC(=O)CN2CCCC2Cn2cccn2)on1 (centres undefined) | 1.91
51 | O=C(c1ccc2c(c1)COC2)N1CCCN(Cc2cscn2)CC1 | 1.09
52 | CN(Cc1noc(C2CC2)n1)C1CCN(CCc2cccs2)C1 (centres undefined) | -2.4
53 | CCN(Cc1cccc2c1OCO2)C(=O)NCCOC | 3.33
54 | Cc1cc(CN2CCCC(Cn3cncn3)C2)on1 (centres undefined) | -3.16
55 | O=C(c1ccc2cc[nH]c2c1)N1CCCN(Cc2cscn2)CC1 | -2.03
56 | CCC(O)CN1CCN(C(=O)c2sccc2C(C)C)CC1 (centres undefined) | -7.94
57 | O=S(=O)(CCN1CCCCC1Cn1cncn1)c1ccccc1 (centres undefined) | 27.2
58 | COCCc1noc(CN2CC(n3nc(C)cc3C)C2)n1 | 4.95
59 | CCCc1noc(CN2CCC(N(C)Cc3nnc(C4CC4)o3)C2)n1 (centres undefined) | 4.17
60 | O=S(=O)(CCCNC1CCc2ncnn2C1)c1ccccc1 (centres undefined) | 23.5
61 | CCCc1nc(C)c(C(=O)NCCN2CCCCC2)s1 | -1.37
62 | CCN1CCN(CCNC(=O)c2sc(C)nc2C)CC1 | -5.81
63 | COCCc1noc(CN2CCOC(Cn3cc(C)cn3)C2)n1 (centres undefined) | 0.177
64 | CCc1nc(C)c(C(=O)NCCN2CCCC2)s1 | -5.7
65 | Cc1ccccc1CN(C)C(=O)CN1CCOC(Cn2cccn2)C1 (centres undefined) | 3.04
66 | Cc1cc(C)n(CC2CN(Cc3nc(C)c(C)o3)CCO2)n1 (centres undefined) | -5.6
67 | O=C(c1cccc(CN2CCCC2)c1)N1CCCC(n2cncn2)C1 (centres undefined) | 16.1
68 | Cc1ccccc1CCNC(=O)C1CC(=O)N(CC(F)(F)F)C1 (centres undefined) | 26.6
69 | CNS(=O)(=O)c1cccc(CNc2nccc(C(F)(F)F)n2)c1 | 53.4
70 | Cc1csc(N2CCN(C(=O)CCC(=O)c3ccc(C)s3)CC2)n1 | 7.78
71 | O=C(NCCNc1ncccn1)C1CCN(CC(F)(F)F)CC1 | -3.78
72 | Cc1nc(-c2ccccc2)n(CC(=O)N(C(C)C)C(C)C)n1 | 2.39

Row | SMILES | cytotoxicity at 70.5 h [%]
73 | CC(C)OCCCNC(=O)c1ccc(-c2ccco2)[nH]c1=O | -2.82
74 | O=C(NCCNc1ncccn1)C1CC(=O)N(CC(F)(F)F)C1 (centres undefined) | -14.3
75 | Cc1ccccc1CC(=O)N1CCN(C2CCOC2=O)CC1 (centres undefined) | -5.25
76 | CC(C)COCC(NC(=O)c1ccccn1)c1ccco1 (centres undefined) | -10.5
77 | CCC(CC)NC(=O)Cn1nc(C)nc1-c1ccccc1 | -6.22
78 | CC(C)COCC(NC(=O)c1cccnc1)c1ccco1 (centres undefined) | -9.01
79 | CC(C)COCC(NC(=O)c1cc[nH]n1)c1ccco1 (centres undefined) | 4.11
80 | Cc1ccc(CNC(=O)NCCCn2nc3ccccn3c2=O)s1 | 30.2
81 | Cc1cc(C)n(CC2CCCN2CC(=O)N(C)Cc2cnn(C)c2)n1 (centres undefined) | -9.95
82 | Cc1nccn1C1CCCN(C(=O)c2ccc3c(c2)NC(=O)CO3)C1 (centres undefined) | -5.24
83 | Cc1cc(C(=O)N2CCCC2Cn2nc(C)cc2C)on1 (centres undefined) | 1.85
84 | CC(=O)Nc1ccc(S(=O)(=O)NC(=O)CCC2CCCO2)cc1 (centres undefined) | 26.4
85 | O=C(COc1ccc2c(c1)CCC2)N1CCOCC1c1ncon1 (centres undefined) | -10.4
86 | CNS(=O)(=O)c1cccc(CNc2ccc(C(F)(F)F)nn2)c1 | -3.47
87 | Cc1cccc(NC(=O)NCCCn2nc3ccccn3c2=O)c1C | -8.44
88 | CC(O)CN1CCC(CNCc2cccc(OC(C)C)c2)CC1 (centres undefined) | 47
89 | CC(O)CN1CCC(CNCc2cccc(Br)c2)CC1 (centres undefined) | 24.8
90 | O=C(c1cccc(OC2CCCC2)c1)N1CCCC(n2cncn2)C1 (centres undefined) | 5.3
91 | CCOc1ncccc1C(=O)N1CCCCC1c1nccs1 (centres undefined) | 2.5
92 | CCc1nccn1C1CCCN(C(=O)c2cnn3ccc(C)nc23)C1 (centres undefined) | -9.27
93 | Cc1cc(C)n(CC2CCCN2Cc2c(C)noc2C)n1 (centres undefined) | 34.3
94 | C1CC(c2noc(C3CC3)n2)CN(Cc2noc(C3CC3)n2)C1 (centres undefined) | -7.62
95 | CCc1noc(CN2CCCC2c2noc(C3CC3)n2)n1 (centres undefined) | 1.8
96 | CCOCC(O)CN1CCN(C(=O)CC(C)C)CC1 (centres undefined) | -7.21

Row | SMILES | cytotoxicity at 70.5 h [%]
97 | CN(C)C(=O)c1ccc(CNC(=O)NCCN(C)C2CCCC2)cc1 | -13
98 | CN(CCNC(=O)Nc1ccncc1)C1CCCCC1 | 30.8
99 | Cc1cc(C)n(CC2CN(Cc3nc(-c4ccoc4)no3)CCO2)n1 (centres undefined) | -15.7
100 | Cc1nc(C)n(C2CCCN(C(=O)c3csc(C(C)C)n3)C2)n1 (centres undefined) | 23.9
101 | CCc1cccc(OCC(=O)N2CCCC(n3cncn3)C2)c1 (centres undefined) | -9.33
102 | CC(Cn1cccn1)NCc1csc(-c2cccs2)n1 (centres undefined) | -26
103 | Cc1ccc(-c2nc(CN3CCc4nn(C)c(=O)cc4C3)co2)cc1 | -17
104 | O=C(NCCNc1ncccn1)N1CCSCC1 | -11.7
105 | O=C1CCc2cc(C(=O)NCc3ccc(-n4cncn4)nc3)ccc2N1 | -0.0283
106 | O=C(NCCNc1ccccn1)N1CCSCC1 | -5.96
107 | COc1cc(C)nc(N2CCN(C(=O)c3ccc[nH]3)CC2)n1 | -1.4
108 | COc1cc(C)nc(N2CCN(C(=O)c3ccc(Cl)o3)CC2)n1 | -7.01
109 | Cc1nn(C)c(C)c1C1CCCN1CC(=O)Nc1ccncc1 (centres undefined) | -7.94
110 | CN(CCNC(=O)NCc1ccncc1)C1CCCC1 | -18
111 | Cc1ccc(-c2nc(CN3CCc4nn(C)c(=O)cc4C3)no2)cc1 | -15.2
112 | Cc1cnn(CCC(=O)N2CCCC(c3cc(C(N)=O)[nH]n3)C2)c1 (centres undefined) | -10.9
113 | CCCOc1cc(CNC(=O)Nc2cccnc2N2CCCC2)ccn1 | -24.2
114 | c1cnnc(N2CCCC(NCc3cn4ccccc4n3)C2)c1 (centres undefined) | 15.8
115 | c1ccc(-c2nc(CN3CCc4c(ncn4C4CC4)C3)cs2)cc1 | 5.22
116 | CN(Cc1cn2ccccc2n1)C1CCCN(c2cccnn2)C1 (centres undefined) | 12.5
117 | Cc1nn(C)c(N(C)C)c1CNC1CCc2cc(F)ccc21 (centres undefined) | -4.67
118 | COc1cc(CNC2CCCc3c2cnn3C)cc(OC)c1 (centres undefined) | -16.8
119 | c1cnc(N2CCCC(NCc3cccc4c3OCCO4)C2)nc1 (centres undefined) | 3.71
